Where a SMILES comes first, the peptide text is derived from it.
Assays:
[1] = Inositol in vitro skin penetration study (Franz Diffusion Cell assay); type: in vitro ADME, human; conditions: 0.5% inositol product, 24 hours; magnet with vibration vs. finger application or applicator incorporating a magnet; particularly in the epidermis; FIG. 6
Method: Skin penetration was measured using the Franz Diffusion Cell assay. Split-thickness (dermatomed) human cadaver skin was thawed under ambient conditions, cut into appropriately sized sections, and mounted in standard Franz-type diffusion cells (0.79 cm^2 surface area) maintained at about 37° C. The receptor compartments were filled with 5 mL phosphate buffered saline (PBS-pH 7.4) that included 1% polysorbate-20 and 0.02% sodium azide, and the skin was allowed to equilibrate for two hours. The cells were qualified upon ^3H20 flux through the mounted skin (150 μL of ^3H20 applied for five minutes and removed; receptor fluid was collected after one hour and analyzed using scintillation spectrometry). […] Where indicated, aliquots of the test products/formulations were spiked with the appropriate radioactive material (^3H-inositol, ^14C-niacinamide, ^14[…] or ^14C-retinyl propionate) with approximately 3 μCi per 300 mg product aliquot, mixed and assayed for total radioactivity in triplicate using Ultima Gold [Perkin-Elmer] liquid scintillation cocktail (LSC) and liquid scintillation counting. […] Active materials in receptor phase, filter paper wipes and solubilized skin samples were quantified using liquid scintillation. […]

[2] = Pal KTTKS in vivo skin penetration study (tape stripping); set-up: species or system human; key to significance of mean μg PalKTTKS/μg skin of Strip 6-10: “s” indicates significant difference vs. mean of passive (p < 0.1); conditions: for μg PalKTTKS/μg skin of Strip 6-10: cream; for Enhancement for strip 6-10: w Vibration vs. w/o Vibration
Method: An in vivo skin penetration study was conducted to establish the effect of using a skin care product of the present invention by applying a skin care composition comprising a peptide, in this case, Pal KTTKS, with an applicator comprising a magnetic array and a vibration source. The study used 10 active study sites (composition applied to target skin surface using an applicator containing a magnetic array and vibration source of the present invention) versus 10 control study sites (composition applied to target skin surface using an applicator with just a magnetic array). In this example, the level of Pal KTTKS present in the extract from each tape strip was measured using HPLC and the results normalized to the protein level measured on the tape strip.
This method provides a suitable means of measuring the amount of skin care active present in skin, and comparing active versus passive application of the skin care active. Two identical circular areas of 7.9 cm^2 were marked on the volar forearms of volunteers. A measured dose (approximately 9 mg) of the skin care formulation (ingredients shown in Table 1) was applied to the delineated areas using a screw actuated syringe. Application was carried out in each case using purpose made applicators having a metallic aluminium skin contact surface behind which was the magnetic array. The cream was spread evenly across the entire delineated region using the applicator in a sweeping motion with a fixed speed of approximately 3.5 cm/s to mimic normal finger application. The application period was 30 seconds during which time visual inspection was used to ensure even distribution and absorption of the formulation by skin. The application area was then left uncovered for a further 30 minutes to ensure complete absorption. The application area was then wiped thoroughly to remove any surface material, followed by carrying out tape stripping.
The Tape Stripping method can be carried out using commercial pre-cut 22.1 mm tape stripping adhesive discs (D-Squame, Cuderm Corporation or equivalent) with an adhesive area of 3.8 cm^2. A 22.1 mm diameter circular region was marked at the centre of the application area. A tape stripping adhesive disc was placed over the marked area and even pressure applied using a neoprene roller, rolled ten times over the surface. The adhesive disc was removed from the skin surface in a single pulling motion using manual tweezers. To ensure even removal of the stratum corneum, subsequent discs were removed in a north, south, east and west orientation. Each adhesive disc was non-destructively analysed for relative protein content using the SquameScan™ 850 instrument (Heiland Electronics Wetzlar Germany). The adhesive disc was then immediately placed into a glass vial containing extraction solvent in preparation for subsequent analysis. Solvent extractions are conducted on each tape strip using conventional extraction methods, which are well known to those of ordinary skill in the art, and measuring the amount of niacinamide present in the extract, for example, by high performance liquid chromatography (“HPLC”) and/or mass spectrometry.
The procedure was repeated for the remaining nine strips. An additional strip was obtained from outside the area of application of the skin care formulation to serve as a blank sample.

[3] = unit not given; cited from earlier work

SMILES: OC1C(O)[C@H](O)[C@@H](O)C(O)[C@H]1O (stereo in doubt) [inositol, cyclohexane-1,2,3,4,5,6-hexol]
- penetration into skin of inositol [1]: significant increase in penetration into skin

SMILES: CCCCCCCCCCCCCCCC(=O)N[C@@H](CCCCN)C(=O)N[C@H](C(=O)N[C@H](C(=O)N[C@@H](CCCCN)C(=O)N[C@@H](CO)C(=O)O)[C@@H](C)O)[C@@H](C)O [PalKTTKS, palimitoyl-lysine-threonine-threonine-lysine-serine] (HELM PEPTIDE1{[CCCCCCCCCCCCCCCC(=O)[*:2]].K.T.T.K.S}$$$$V2.0; C-terminus assumed)
- significance of mean μg PalKTTKS/μg skin of Strip 6-10 ([2]; Magnetic Micro array w Vibration, Mean, vs. mean of passive): s
- μg PalKTTKS/μg skin of Strip 6-10 ([2]; Magnetic Micro array w Vibration, Mean of 10 panelists): 0.02522 μg PalKTTKS/μg skin
- μg PalKTTKS/μg skin of Strip 6-10 ([2]; Magnetic Micro array w Vibration, Panelist1): 0.01152 μg PalKTTKS/μg skin
- μg PalKTTKS/μg skin of Strip 6-10 ([2]; Magnetic Micro array w Vibration, Panelist2): 0.02161 μg PalKTTKS/μg skin
- μg PalKTTKS/μg skin of Strip 6-10 ([2]; Magnetic Micro array w Vibration, Panelist3): 0.01304 μg PalKTTKS/μg skin
- μg PalKTTKS/μg skin of Strip 6-10 ([2]; Magnetic Micro array w Vibration, Panelist4): 0.0258 μg PalKTTKS/μg skin
- μg PalKTTKS/μg skin of Strip 6-10 ([2]; Magnetic Micro array w Vibration, Panelist5): 0.0568 μg PalKTTKS/μg skin
- μg PalKTTKS/μg skin of Strip 6-10 ([2]; Magnetic Micro array w Vibration, Panelist6): 0.04369 μg PalKTTKS/μg skin
- μg PalKTTKS/μg skin of Strip 6-10 ([2]; Magnetic Micro array w Vibration, Panelist7): 0.02184 μg PalKTTKS/μg skin
- μg PalKTTKS/μg skin of Strip 6-10 ([2]; Magnetic Micro array w Vibration, Panelist8): 0.02081 μg PalKTTKS/μg skin
- μg PalKTTKS/μg skin of Strip 6-10 ([2]; Magnetic Micro array w Vibration, Panelist9): 0.01648 μg PalKTTKS/μg skin
- μg PalKTTKS/μg skin of Strip 6-10 ([2]; Magnetic Micro array w Vibration, Panelist10): 0.02061 μg PalKTTKS/μg skin
- μg PalKTTKS/μg skin of Strip 6-10 ([2]; Magnetic Micro array w/o Vibration, Mean of 10 panelists): 0.02166 μg PalKTTKS/μg skin
- μg PalKTTKS/μg skin of Strip 6-10 ([2]; Magnetic Micro array w/o Vibration, Panelist1): 0.0107 μg PalKTTKS/μg skin
- μg PalKTTKS/μg skin of Strip 6-10 ([2]; Magnetic Micro array w/o Vibration, Panelist2): 0.01869 μg PalKTTKS/μg skin
- μg PalKTTKS/μg skin of Strip 6-10 ([2]; Magnetic Micro array w/o Vibration, Panelist3): 0.00663 μg PalKTTKS/μg skin
- μg PalKTTKS/μg skin of Strip 6-10 ([2]; Magnetic Micro array w/o Vibration, Panelist4): 0.01973 μg PalKTTKS/μg skin
- μg PalKTTKS/μg skin of Strip 6-10 ([2]; Magnetic Micro array w/o Vibration, Panelist5): 0.05444 μg PalKTTKS/μg skin
- μg PalKTTKS/μg skin of Strip 6-10 ([2]; Magnetic Micro array w/o Vibration, Panelist6): 0.03195 μg PalKTTKS/μg skin
- μg PalKTTKS/μg skin of Strip 6-10 ([2]; Magnetic Micro array w/o Vibration, Panelist7): 0.02902 μg PalKTTKS/μg skin
- μg PalKTTKS/μg skin of Strip 6-10 ([2]; Magnetic Micro array w/o Vibration, Panelist8): 0.01924 μg PalKTTKS/μg skin
- μg PalKTTKS/μg skin of Strip 6-10 ([2]; Magnetic Micro array w/o Vibration, Panelist9): 0.00638 μg PalKTTKS/μg skin
- μg PalKTTKS/μg skin of Strip 6-10 ([2]; Magnetic Micro array w/o Vibration, Panelist10): 0.01984 μg PalKTTKS/μg skin
- penetration of the active into skin ([2]; applicator combining magnetic array with vibration source vs. control applicator with just a magnetic array): penetration of the active is enhanced
- Enhancement for strip 6-10 ([2]; Mean): 1.337
- Enhancement for strip 6-10 ([2]; Panelist1): 1.077
- Enhancement for strip 6-10 ([2]; Panelist2): 1.156
- Enhancement for strip 6-10 ([2]; Panelist3): 1.966
- Enhancement for strip 6-10 ([2]; Panelist4): 1.307
- Enhancement for strip 6-10 ([2]; Panelist5): 1.043
- Enhancement for strip 6-10 ([2]; Panelist6): 1.367
- Enhancement for strip 6-10 ([2]; Panelist7): 0.7528
- Enhancement for strip 6-10 ([2]; Panelist8): 1.081
- Enhancement for strip 6-10 ([2]; Panelist9): 2.582
- Enhancement for strip 6-10 ([2]; Panelist10): 1.039
- diamagnetic susceptibility [3]: approximately −519
